Data as given in US12331029B2, “Orexin 1 receptor antagonists” (NXERA PHARMA UK LIMITED, priority 2018, dated 2025).
pKd, pKi: −log10 of the molar value.

Assays:
Human OX2 receptor [1] = target: T1, Human OX2 receptor (Homo sapiens, UniProt O43614); experiment: IPone accumulation assay, CHO cells expressing human OX2 receptor; assay type: cell-based; conditions: antagonism of orexin A (EC80) induced inositol phosphate turnover, read-out: fpKb average OX2
T1 sequence (O43614 1-444): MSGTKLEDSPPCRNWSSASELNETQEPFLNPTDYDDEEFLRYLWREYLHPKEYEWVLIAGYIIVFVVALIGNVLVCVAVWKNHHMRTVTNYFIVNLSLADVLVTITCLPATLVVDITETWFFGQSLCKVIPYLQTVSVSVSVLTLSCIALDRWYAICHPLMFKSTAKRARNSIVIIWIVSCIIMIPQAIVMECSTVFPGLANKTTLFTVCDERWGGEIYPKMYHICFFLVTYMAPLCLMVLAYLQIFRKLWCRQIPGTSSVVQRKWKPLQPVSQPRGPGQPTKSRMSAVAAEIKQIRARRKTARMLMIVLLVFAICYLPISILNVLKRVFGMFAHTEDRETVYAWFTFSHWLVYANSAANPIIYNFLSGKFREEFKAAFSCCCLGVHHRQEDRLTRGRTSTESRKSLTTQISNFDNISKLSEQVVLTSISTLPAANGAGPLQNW
Experimental: (§1) Stable cell lines for the human OX1R and OX2R receptors were generated through the transfection of CHO cells using the transfection reagent Genejuice (Novagen number 70967) and cDNA coding for either the human OX1R or OX2R. Cells were cultured in Sigma Nutrient Mixture F-12 Ham media (catalog number N6658) supplemented with 10% heat-inactivated FBS. Forty-eight hours after transfection, cells were harvested and placed under geneticin selection by culturing in Sigma Nutrient Mixture F-12 Ham media supplemented with 10% heat-inactivated FBS and geneticin (ThermoFisher Catalog number: 10131035). Selection of the final stable clone for each receptor was made on the basis of receptor expression, assay signal to noise and robustness though increasing passage. Selected clones for the human OX1R and OX2R were then frozen down into liquid nitrogen using Cell Freezing Medium-DMSO (Sigma-Aldrich catalog number: C6164).
IPone accumulation assay. A CHO cell line stably expressing either human OX1 or OX2 receptor was used with the IPone HTRF assay kit (CisBio: Part #62IPAPEJ) to measure receptor activation. The assay was optimised to measure the ability (potency; fpKb) of antagonists to reduce agonist (orexin A)-induced inositol phosphate turnover. Briefly, cells were plated onto half area 96-well white walled plates at a density of 12,500 cells/well. Sixteen hours post-plating cell growth media was replaced with antagonist concentration-response curve diluted in stimulation buffer (supplied with the kit). […] After 30 min stimulation in a humidified incubator (37° C.) the assay was terminated by the addition of detection mixture as per manufacturer's instructions. The concentration of compound which reduced orexin-A stimulated turnover of inositol phosphates by 50% (IC50) was calculated by fitting to a four parameter sigmoidal dose response curve. The IC50 values were converted to fpKB values using the orexin A pEC50 value estimated on each plate as well as the challenge concentration interpolated from the orexin A control curve.

Human OX1 receptor [2] = target: T2, Human OX1 receptor (Homo sapiens, UniProt O43613); experiment: IPone accumulation assay, CHO cells expressing human OX1 receptor; assay type: cell-based; conditions: antagonism of orexin A (EC80) induced inositol phosphate turnover, read-out: fpKb average OX1 (converted)
T2 sequence (O43613 1-425): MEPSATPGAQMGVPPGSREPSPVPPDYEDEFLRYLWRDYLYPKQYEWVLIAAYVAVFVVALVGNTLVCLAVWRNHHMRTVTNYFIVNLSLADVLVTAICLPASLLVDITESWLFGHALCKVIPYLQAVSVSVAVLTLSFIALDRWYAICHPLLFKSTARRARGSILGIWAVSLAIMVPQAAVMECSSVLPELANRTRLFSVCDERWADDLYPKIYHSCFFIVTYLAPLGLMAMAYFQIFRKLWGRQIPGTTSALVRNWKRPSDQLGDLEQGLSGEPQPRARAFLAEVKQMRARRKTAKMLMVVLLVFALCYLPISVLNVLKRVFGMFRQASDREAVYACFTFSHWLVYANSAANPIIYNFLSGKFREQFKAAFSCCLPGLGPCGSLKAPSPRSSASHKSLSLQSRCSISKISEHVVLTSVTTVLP
Experimental: as §1
IPone accumulation assay. A CHO cell line stably expressing either human OX1 or OX2 receptor was used with the IPone HTRF assay kit (CisBio: Part #62IPAPEJ) to measure receptor activation. The assay was optimised to measure the ability (potency; fpKb) of antagonists to reduce agonist (orexin A)-induced inositol phosphate turnover. Briefly, cells were plated onto half area 96-well white walled plates at a density of 12,500 cells/well. Sixteen hours post-plating cell growth media was replaced with antagonist concentration-response curve diluted in stimulation buffer (supplied with the kit). Cells were incubated in a humidified incubator (37° C.) for 30 min before an EC80 challenge concentration (˜20 nM (OX1) and 40 nM (OX2)) of orexin A (Tocris catalogue number 1455). After 30 min stimulation in a humidified incubator (37° C.) the assay was terminated by the addition of detection mixture as per manufacturer's instructions. The concentration of compound which reduced orexin-A stimulated turnover of inositol phosphates by 50% (IC50) was calculated by fitting to a four parameter sigmoidal dose response curve. The IC50 values were converted to fpKB values using the orexin A pEC50 value estimated on each plate as well as the challenge concentration interpolated from the orexin A control curve.

Human OX1 receptor [3] = target: T2, Human OX1 receptor; experiment: [3H]-radioligand binding assay, human OX1 receptor membranes
Experimental: (§2) Human OX1 or OX2 receptor were cloned into Invitrogen's (ThermoFisher Scientific, UK) Bac-to-Bac Baculovirus Expression System. P0 baculovirus was generated by transfecting SF9 cells with bacmid DNA using Cellfectin® II transfection reagent (ThermoFisher Scientific, UK, Catalog number 10362-100). Following P0 generation P1 virus was then generated ready for large scale infection and membrane preparation. SF21 cells were grown in expression medium ESF921 (Expression Systems, USA, catalog number 96-001-01) supplemented with 10% heat-inactivated FBS and 1% Pen/Strep and were infected at a cell density of 2.5×10^6 cells/mL and a multiplicity of infection of 1.0 for both human OX1R and OX2R. Incubation was carried out at over 48 h in a shaking incubator set at 27° C. The cell culture was then centrifuged at 2,500 rcf for 10 min at 4° C. The pellets were resuspended in cold PBS supplemented with Roche's Complete EDTA-free protease inhibitor cocktail tablets (Roche Applied Sciences, catalog number 05056489001), 1 mM PMSF and 1 mM EDTA. The resuspended cell paste was then centrifuged at 3,273 rcf for 12 min at 4° C. The supernatant was discarded and the pellet frozen at −80° C. The cell pellet from a 4 L culture was resuspended in buffer containing 50 mM HEPES pH 7.5, 150 mM NaCl, 8 Roche EDTA-Free protease inhibitor cocktail tablets and 1 mM PMSF. The suspension was left stirring at rt for 1 h and then homogenised for 90 s at 9,500 rpm using a VDI 25 (VWR, USA) homogeniser. The cells were then lysed using a Microfluidiser processor M-110L Pneumatic (Microfluidics, USA) at 60 PSI and membranes collected by ultracentrifugation at 204.7 k×g for 1 h. The supernatant was discarded and the pellet was resuspended and homogenised in 90 s at 9,500 rpm in 50 mL (25 mL for each 2 L culture) of buffer containing 50 mM Hepes pH 7.5, 150 mM NaCl, 3 Roche EDTA-free protease inhibitor cocktail tablets and 1 mM PMSF. The resulting membranes were then stored at −80° C.
(§3) [^3H]-radioligand binding assay. After thawing, membrane homogenates were re-suspended in the binding buffer (8.5 mM HEPES, pH 7.4, 1.3 mM CaCl2, 1.2 mM MgSO4, 118 mM NaCl, 4.7 mM KCl, 4 mM NaHCO3, 1.2 mM KH2PO4, 11 mM glucose) to a final assay concentration of 6.4 μg (OX1) or 1.4 μg (OX2) protein per well. Saturation isotherms were determined by the addition of various concentrations (0-30 nM) of [^3H]-4-(2,6-difluoro-4-methoxybenzyl)-2-(5,6-dimethoxypyridin-3-yl)-2H-1,2,4-benzothiadiazin-3(4H)-one 1,1-dioxide (Christopher et al, MedChemComm., 2015, 6, 947-955) in a total reaction volume of 250 μL for 90 min at rt. At the end of the incubation, membranes were filtered onto a 96-well GF/B filter pre-incubated with 0.5% polyethylenimine, with a Tomtec cell harvester and washed 5 times with 0.5 mL distilled water. Non-specific binding (NSB) was measured in the presence of 3.33 μM [4-(5-chloro-1,3-benzoxazol-2-yl)-7-methyl-1,4-diazepan-1-yl][5-methyl-2-(2H-1,2,3-triazol-2-yl)phenyl]methanone (Wertz et al, Angew. Chem. Int. Ed., 2011, 50, 11511-11515). Radioactivity on the filter was counted (1 min) on a Microbeta radiometric plate counter (Perkin Elmer) after addition of 50 μL of scintillation fluid (LabLogic: Part #SG-BXX-14). […] IC50 values were derived from the inhibition curve and the equilibrium dissociation constant (Ki) values were calculated using the Cheng-Prusoff equation.

Human OX2 receptor [4] = target: T1, Human OX2 receptor; experiment: [3H]-radioligand binding assay, human OX2 receptor membranes
Experimental: as §2, §3

Compound | Kb (Human OX2 receptor [1]) [µM] | Kb (Human OX1 receptor [2]) [µM] | pKi (Human OX1 receptor [3]) | pKi (Human OX2 receptor [4]) | pKd (Human OX1 receptor [3]; read-out: KD value of the radioligand, OX1, saturation isotherms) | pKd (Human OX2 receptor [4]; read-out: KD value of the radioligand, OX2, saturation isotherms)
O=C(N[C@H]1CCC[C@@H]1COc1ccc(F)cc1)c1ccccc1-n1nccn1 [Example 1, N-[(1S,2S)-2-[(4-fluorophenoxy)methyl]cyclopentyl]-2-(triazol-2-yl)benzamide] | > 1.58 | 0.126 | 8.00 | < 5.50 | – | –
Cc1ccc(-c2ncccn2)c(C(=O)N[C@H]2CCC[C@@H]2COc2ccc(F)cc2)c1 [Example 2, N-[(1S,2S)-2-[(4-fluorophenoxy)methyl]cyclopentyl]-5-methyl-2-pyrimidin-2-yl-benzamide] | > 1.26 | 0.0631 | 8.30 | < 5.30 | – | –
Cc1ccc(-n2nccn2)c(C(=O)N[C@H]2CCC[C@@H]2COc2ccc(F)cc2)c1 [Example 3, N-[(1S,2S)-2-[(4-fluorophenoxy)methyl]cyclopentyl]-5-methyl-2-(triazol-2-yl)benzamide] | – | – | 7.80 | < 5.90 | – | –
O=C(N[C@H]1CCC[C@@H]1COc1ccc(F)cc1)c1c(F)cccc1-n1nccn1 [Example 4, 2-fluoro-N-[(1S,2S)-2-[(4-fluorophenoxy)methyl]cyclopentyl]-6-(triazol-2-yl)benzamide] | > 2 | 0.0631 | 8.40 | < 5.50 | – | –
COc1cccc(-n2nccn2)c1C(=O)N[C@H]1CCC[C@@H]1COc1ccc(F)cc1 [Example 5, N-[(1S,2S)-2-[(4-fluorophenoxy)methyl]cyclopentyl]-2-methoxy-6-(triazol-2-yl)benzamide] | > 0.501 | 0.00158 | 8.80 | 6.70 | – | –
COc1cccc(-n2nccn2)c1C(=O)N[C@H]1CCC[C@@H]1COc1ccc(Cl)cc1 [Example 6, N-[(1S,2S)-2-[(4-chlorophenoxy)methyl]cyclopentyl]-2-methoxy-6-(triazol-2-yl)benzamide] | > 0.794 | 0.00631 | 8.60 | 6.70 | – | –
[2H]C([2H])(Oc1ccc(F)cc1)[C@H]1CCC[C@@H]1NC(=O)c1c(OC)cccc1-n1nccn1 [Example 7, N-[(1S,2S)-2-[dideuterio-(4-fluorophenoxy)methyl]cyclopentyl]-2-methoxy-6-(triazol-2-yl)benzamide] | > 0.794 | 0.000794 | 8.60 | 6.80 | – | –
O=C(N[C@H]1CCC[C@@H]1COc1ccc(F)cc1)c1c(OC(F)F)cccc1-n1nccn1 [Example 8, 2-(difluoromethoxy)-N-[(1S,2S)-2-[(4-fluorophenoxy)methyl]cyclopentyl]-6-(triazol-2-yl)benzamide] | > 0.398 | 0.0794 | 8.20 | 6.20 | – | –
COc1cccc(-c2ncccn2)c1C(=O)N[C@H]1CCC[C@@H]1COc1ccc(F)cc1 [Example 9, N-[(1S,2S)-2-[(4-fluorophenoxy)methyl]cyclopentyl]-2-methoxy-6-pyrimidin-2-yl-benzamide] | – | 0.01 | 8.40 | – | – | –
O=C(N[C@H]1CCC[C@@H]1COc1ccc(F)cc1)c1c(F)cccc1-c1ncccn1 [Example 10, 2-fluoro-N-[(1S,2S)-2-[(4-fluorophenoxy)methyl]cyclopentyl]-6-pyrimidin-2-yl-benzamide] | > 0.631 | 0.02 | 8.20 | 5.80 | – | –
COc1cccc(-c2cnccn2)c1C(=O)N[C@H]1CCC[C@@H]1COc1ccc(F)cc1 [Example 11, N-[(1S,2S)-2-[(4-fluorophenoxy)methyl]cyclopentyl]-2-methoxy-6-pyrazin-2-yl-benzamide] | > 0.631 | 0.02 | 8.10 | – | – | –
COc1cccc(-c2ccncn2)c1C(=O)N[C@H]1CCC[C@@H]1COc1ccc(F)cc1 [Example 12, N-[(1S,2S)-2-[(4-fluorophenoxy)methyl]cyclopentyl]-2-methoxy-6-pyrimidin-4-yl-benzamide] | > 0.631 | 0.0126 | 8.50 | 6.00 | – | –
COc1cccc(-c2ncc(F)cn2)c1C(=O)N[C@H]1CCC[C@@H]1COc1ccc(F)cc1 [Example 13, N-[(1S,2S)-2-[(4-fluorophenoxy)methyl]cyclopentyl]-2-(5-fluoropyrimidin-2-yl)-6-methoxy-benzamide] | > 0.631 | 0.0316 | 7.90 | 5.80 | – | –
[2H]C([2H])([2H])Oc1cccc(-n2nccn2)c1C(=O)N[C@H]1CCC[C@@H]1COc1ccc(F)cc1 [Example 14, N-[(1S,2S)-2-[(4-fluorophenoxy)methyl]cyclopentyl]-2-(triazol-2-yl)-6-(trideuteriomethoxy)benzamide] | > 0.501 | 0.001 | 8.90 | 6.90 | – | –
O=C(N[C@H]1CCC[C@@H]1COc1ccc(F)cc1)c1c(OC(F)F)cccc1-c1ncccn1 [Example 15, 2-(difluoromethoxy)-N-[(1S,2S)-2-[(4-fluorophenoxy)methyl]cyclopentyl]-6-pyrimidin-2-yl-benzamide] | > 2.51 | 0.158 | 7.90 | < 5.90 | – | –
COc1ccc(F)c(-n2nccn2)c1C(=O)N[C@H]1CCC[C@@H]1COc1ccc(F)cc1 [Example 16, 3-fluoro-N-[(1S,2S)-2-[(4-fluorophenoxy)methyl]cyclopentyl]-6-methoxy-2-(triazol-2-yl)benzamide] | > 0.631 | 0.02 | 7.90 | 5.80 | – | –
COc1cccc(-n2nccn2)c1C(=O)N[C@H]1CCC[C@@H]1COc1ccc(F)cn1 [Example 31, N-[(1S,2S)-2-[(5-fluoro-2-pyridyl)oxymethyl]cyclopentyl]-2-methoxy-6-(triazol-2-yl)benzamide] | – | 0.01 | 8.20 | – | – | –
[2H]C([2H])([2H])Oc1cccc(-n2nccn2)c1C(=O)N[C@H]1CCC[C@@H]1COc1ccc(F)cn1 [Example 33, N-[(1S,2S)-2-[(5-fluoro-2-pyridyl)oxymethyl]cyclopentyl]-2-(triazol-2-yl)-6-(trideuteriomethoxy)benzamide] | – | 0.0158 | 8.40 | – | – | –
COc1cc(F)c(CN2C(=O)N(c3cnc(OC)c(OC)c3)S(=O)(=O)c3ccccc32)c(F)c1 [[^3H]-4-(2,6-difluoro-4-methoxybenzyl)-2-(5,6-dimethoxypyridin-3-yl)-2H-1,2,4-benzothiadiazin-3(4H)-one 1,1-dioxide, reference compound] | – | – | – | – | 8.82 | 9.12
